Experimental data taken from US20240116892A1, “HETEROCYCLIC AMIDE AND UREA COMPOUNDS AS JAK2 INHIBITORS” (Ajax Therapeutics, Inc., priority 2022, published 2024).

Target: JAK2 (JH1 domain-catalytic, Y1007F, Y1008F) kinase (Homo sapiens (Human), UniProt O60674, Y1007F/Y1008F)
Assay: JAK2 JH1 Domain Binding Assay
Conditions: qPCR readout
Procedure, shortened: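 JH1 catalytic domain (Y1007F/Y1008F) expressed as NFkB DNA-binding-domain fusion in HEK293 cells, DNA-tagged. Competition with immobilized biotinylated ligand on streptavidin beads, 1 h at RT in PBS/Tween/BSA/DTT; bound kinase eluted with free ligand and quantified by qPCR.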

Sequence of JAK2 (JH1 domain-catalytic, Y1007F, Y1008F) kinase (O60674 849-1124 Y1007F/Y1008F): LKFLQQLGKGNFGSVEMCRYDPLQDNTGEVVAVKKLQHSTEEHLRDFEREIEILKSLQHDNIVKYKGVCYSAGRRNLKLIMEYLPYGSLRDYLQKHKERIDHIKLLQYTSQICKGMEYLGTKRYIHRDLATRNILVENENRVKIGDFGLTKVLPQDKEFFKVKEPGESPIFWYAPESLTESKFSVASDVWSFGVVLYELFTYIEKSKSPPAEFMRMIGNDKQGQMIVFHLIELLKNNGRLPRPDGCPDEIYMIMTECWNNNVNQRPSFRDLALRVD

| Kd | SMILES |
| --- | --- |
| < 10 nM | CN(C(=O)Nc1cc(C(F)(F)F)cn(C)c1=O)[C@H]1CCN(c2cnc3[nH]nc(OC4CCOCC4)c3c2)C[C@@H]1F [Example I-114-a, 1-((3S,4S)-3-fluoro-1-(3-((tetrahydro-2H-pyran-4-yl)oxy)-1H-pyrazolo[3,4-b]pyridin-5-yl)piperidin-4-yl)-1-methyl-3-(1-methyl-2-oxo-5-(trifluoromethyl)-1,2-dihydropyridin-3-yl)urea] |
| < 10 nM | CN(C(=O)Nc1cc(C(F)(F)F)cn(C)c1=O)[C@@H]1CCN(c2cnc3[nH]nc(OC4CCOCC4)c3c2)C[C@H]1F [Example I-114-b, 1-((3R,4R)-3-fluoro-1-(3-((tetrahydro-2H-pyran-4-yl)oxy)-1H-pyrazolo[3,4-b]pyridin-5-yl)piperidin-4-yl)-1-methyl-3-(1-methyl-2-oxo-5-(trifluoromethyl)-1,2-dihydropyridin-3-yl)urea] |
| 10 to 50 nM | CO[C@@H]1CN(c2cnc3[nH]nc(N(C)C)c3c2)CC[C@H]1N(C)C(=O)Nc1cc(C(F)(F)F)cn(C)c1=O [Example I-115-a, 1-((3R,4R)-1-(3-(dimethylamino)-1/-pyrazolo[3,4-b]pyridin-5-yl)-3-methoxypiperidin-4-yl)-1-methyl-3-(1-methyl-2-oxo-5-(trifluoromethyl)-1,2-dihydropyridin-3-yl)urea] |
| 50 to 1000 nM | CO[C@H]1CN(c2cnc3[nH]nc(N(C)C)c3c2)CC[C@@H]1N(C)C(=O)Nc1cc(C(F)(F)F)cn(C)c1=O [Example I-115-b, 1-((3S,4S)-1-(3-(dimethylamino)-1H-pyrazolo[3,4-b]pyridin-5-yl)-3-methoxypiperidin-4-yl)-1-methyl-3-(1-methyl-2-oxo-5-(trifluoromethyl)-1,2-dihydropyridin-3-yl)urea] |
| < 10 nM | CN(C(=O)Nc1cc(C(F)(F)F)cn(C)c1=O)C12CC(c3cnc4[nH]ncc4c3)(C1)C2 [Example I-116, 1-(3-(1H-pyrazolo[3,4-b]pyridin-5-yl)bicyclo[1.1.1]pentan-1-yl)-1-methyl-3-(1-methyl-2-oxo-5-(trifluoromethyl)-1,2-dihydropyridin-3-yl)urea] |
| 50 to 1000 nM | CO[C@@H]1CN(c2cnc3[nH]c(C)cc3n2)CC[C@H]1N(C)C(=O)Nc1cc(C(F)(F)F)cn(C)c1=O [Example I-117-a, 1-((3R,4R)-3-methoxy-1-(6-methyl-5H-pyrrolo[2,3-b]pyrazin-2-yl)piperidin-4-yl)-1-methyl-3-(1-methyl-2-oxo-5-(trifluoromethyl)-1,2-dihydropyridin-3-yl)urea] |
| 50 to 1000 nM | CO[C@H]1CN(c2cnc3[nH]c(C)cc3n2)CC[C@@H]1N(C)C(=O)Nc1cc(C(F)(F)F)cn(C)c1=O [Example I-117-b, 1-((3S,4S)-3-methoxy-1-(6-methyl-5H-pyrrolo[2,3-b]pyrazin-2-yl)piperidin-4-yl)-1-methyl-3-(1-methyl-2-oxo-5-(trifluoromethyl)-1,2-dihydropyridin-3-yl)urea] |
| 10 to 50 nM | CO[C@@H]1CN(c2cnc3[nH]cc(C)c3n2)CC[C@H]1N(C)C(=O)Nc1cc(C(F)(F)F)cn(C)c1=O [Example I-118-a, 1-((3R,4R)-3-methoxy-1-(7-methyl-5H-pyrrolo[2,3-b]pyrazin-2-yl)piperidin-4-yl)-1-methyl-3-(1-methyl-2-oxo-5-(trifluoromethyl)-1,2-dihydropyridin-3-yl)urea] |
| 50 to 1000 nM | CO[C@H]1CN(c2cnc3[nH]cc(C)c3n2)CC[C@@H]1N(C)C(=O)Nc1cc(C(F)(F)F)cn(C)c1=O [Example I-118-b, 1-((3S,4S)-3-methoxy-1-(7-methyl-5H-pyrrolo[2,3-b]pyrazin-2-yl)piperidin-4-yl)-1-methyl-3-(1-methyl-2-oxo-5-(trifluoromethyl)-1,2-dihydropyridin-3-yl)urea] |
| 1000 to 5000 nM | CO[C@H]1C[C@H](n2[nH]c3ncc(N4CCC(N(C)C(=O)Nc5cc(C(F)(F)F)cn(C)c5=O)CC4)cc3c2=O)C1 [Example I-119, 1-(1-(2-((1r,3r)-3-methoxycyclobutyl)-3-oxo-2,3-dihydro-1H-pyrazolo[3,4-b]pyridin-5-yl)piperidin-4-yl)-1-methyl-3-(1-methyl-2-oxo-5-(trifluoromethyl)-1,2-dihydropyridin-3-yl)urea] |
| 50 to 1000 nM | Cn1cc(C(F)(F)F)cc(NC(=O)N(C)[C@H]2CC[C@H](c3cnc4[nH]ccc4n3)CC2)c1=O [Example I-120-a, trans-1-(4-(5H-pyrrolo[2,3-b]pyrazin-2-yl)cyclohexyl)-1-methyl-3-(1-methyl-2-oxo-5-(trifluoromethyl)-1,2-dihydropyridin-3-yl)urea] |
| < 10 nM | Cn1cc(C(F)(F)F)cc(NC(=O)N(C)[C@H]2CC[C@@H](c3cnc4[nH]ccc4n3)CC2)c1=O [Example I-120-b, cis-1-(4-(5H-pyrrolo[2,3-b]pyrazin-2-yl)cyclohexyl)-1-methyl-3-(1-methyl-2-oxo-5-(trifluoromethyl)-1,2-dihydropyridin-3-yl)urea] |
| < 10 nM | CN(C(=O)Nc1cc(C(F)(F)F)cn(C)c1=O)C1CCN(c2cnc3[nH]cc(N4CCOCC4)c3n2)CC1 [Example I-124, 1-methyl-3-(1-methyl-2-oxo-5-(trifluoromethyl)-1,2-dihydropyridin-3-yl)-1-(1-(7-morpholino-5H-pyrrolo[2,3-b]pyrazin-2-yl)piperidin-4-yl)urea] |
| < 10 nM | CNc1n[nH]c2ncc(N3CC[C@@H](N(C)C(=O)Nc4cc(C(F)(F)F)cn(C)c4=O)C(F)(F)C3)cc12 [Example I-125-a, (R)-1-(3,3-difluoro-1-(3-(methylamino)-1H-pyrazolo[3,4-b]pyridin-5-yl)piperidin-4-yl)-1-methyl-3-(1-methyl-2-oxo-5-(trifluoromethyl)-1,2-dihydropyridin-3-yl)urea] |
| < 10 nM | CNc1n[nH]c2ncc(N3CC[C@H](N(C)C(=O)Nc4cc(C(F)(F)F)cn(C)c4=O)C(F)(F)C3)cc12 [Example I-125-b, (S)-1-(3,3-difluoro-1-(3-(methylamino)-1H-pyrazolo[3,4-b]pyridin-5-yl)piperidin-4-yl)-1-methyl-3-(1-methyl-2-oxo-5-(trifluoromethyl)-1,2-dihydropyridin-3-yl)urea] |
| < 10 nM | C[C@H]1C[C@@H](N(C)C(=O)Nc2cc(C(F)(F)F)cn(C)c2=O)CCN1c1cnc2[nH]ccc2n1 [Example I-126-a, 1-methyl-1-((2S,4S)-2-methyl-1-(5H-pyrrolo[2,3-b]pyrazin-2-yl)piperidin-4-yl)-3-(1-methyl-2-oxo-5-(trifluoromethyl)-1,2-dihydropyridin-3-yl)urea] |
| < 10 nM | C[C@@H]1C[C@H](N(C)C(=O)Nc2cc(C(F)(F)F)cn(C)c2=O)CCN1c1cnc2[nH]ccc2n1 [Example I-126-b, 1-methyl-1-((2R,4R)-2-methyl-1-(5H-pyrrolo[2,3-b]pyrazin-2-yl)piperidin-4-yl)-3-(1-methyl-2-oxo-5-(trifluoromethyl)-1,2-dihydropyridin-3-yl)urea] |
| 50 to 1000 nM | COCc1cc2nc(N3CC[C@H](N(C)C(=O)Nc4cc(C(F)(F)F)cn(C)c4=O)C[C@@H]3C)cnc2[nH]1 [Example I-127-a, 1-((2S,4S)-1-(6-(methoxymethyl)-5H-pyrrolo[2,3-b]pyrazin-2-yl)-2-methylpiperidin-4-yl)-1-methyl-3-(1-methyl-2-oxo-5-(trifluoromethyl)-1,2-dihydropyridin-3-yl)urea] |
